Assay results: patent US9963445B2, “Chemical compounds” (SYNGENTA PARTICIPATIONS AG, priority 2013, dated 2018)

How the values were obtained:
Assay type in all cases: in vivo
Abutilon theophrasti [1] = experiment: Post-emergence herbicidal activity, glasshouse pot test; design: key: 0 = no damage to plant, 5 = total damage to plant; conditions: Application post-emergence, rate 1000 g/ha, evaluated after 13 days
Procedure, shortened: (§1)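 Damage rated 0 (none) to 5 (total) 13 days after spraying. Plants were treated post-emergence at 8 days after sowing, using an acetone/water (50:50) formulation with 0.5% Tween 20 diluted to an aqueous spray.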

Echinochloa crus-galli [2] = experiment: as above; design: key: 0 = no damage to plant, 5 = total damage to plant; conditions: Application post-emergence, rate 1000 g/ha, evaluated after 13 days
Procedure, shortened: as §1

Amaranthus retroflexus [3] = experiment: as above; design: key: 0 = no damage to plant, 5 = total damage to plant; conditions: Application post-emergence, rate 1000 g/ha, evaluated after 13 days
Procedure, shortened: as §1

Setaria faberi [4] = experiment: as above; design: key: 0 = no damage to plant, 5 = total damage to plant; conditions: Application post-emergence, rate 1000 g/ha, evaluated after 13 days
Procedure, shortened: as §1

zea mays [5] = experiment: as above; design: key: 0 = no damage to plant, 5 = total damage to plant; conditions: Application post-emergence, rate 1000 g/ha, evaluated after 13 days
Procedure, shortened: as §1

Alopecurus myosuroides [6] = experiment: as above; design: key: 0 = no damage to plant, 5 = total damage to plant; conditions: Application post-emergence, rate 1000 g/ha, evaluated after 13 days
Procedure, shortened: as §1

Abutilon theophrasti [7] = experiment: Pre-emergence herbicidal activity, glasshouse pot test; conditions: pre-emergence spray, rate 1000 g/ha, evaluated after 13 days, scale 0-5
Procedure, shortened: (§2)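 Damage was rated at 13 days from 0 (none) to 5 (total), in a glasshouse kept at 24/16 °C, 14 h light and 65% humidity with watering twice daily. The aqueous spray of active ingredient in 50:50 acetone/water plus 0.5% Tween 20 was applied to soil one day post-sowing, before emergence.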

Echinochloa crus-galli [8] = experiment: as above; conditions: pre-emergence spray, rate 1000 g/ha, evaluated after 13 days, scale 0-5
Procedure, shortened: as §2

Amaranthus retroflexus [9] = experiment: as above; conditions: pre-emergence spray, rate 1000 g/ha, evaluated after 13 days, scale 0-5
Procedure, shortened: as §2

Setaria faberi [10] = experiment: as above; conditions: pre-emergence spray, rate 1000 g/ha, evaluated after 13 days, scale 0-5
Procedure, shortened: as §2

zea mays [11] = experiment: as above; conditions: pre-emergence spray, rate 1000 g/ha, evaluated after 13 days, scale 0-5
Procedure, shortened: as §2

Alopecurus myosuroides [12] = experiment: as above; conditions: pre-emergence spray, rate 1000 g/ha, evaluated after 13 days, scale 0-5
Procedure, shortened: as §2

Structure (SMILES)	ABUTH herbicidal damage score (Abutilon theophrasti [1])	ECHCG herbicidal damage score (Echinochloa crus-galli [2])	AMARE herbicidal damage score (Amaranthus retroflexus [3])	SETFA herbicidal damage score (Setaria faberi [4])	ZEAMX herbicidal damage score (zea mays [5])	ALOMY herbicidal damage score (Alopecurus myosuroides [6])	ABUTH damage score, application pre-emergence (Abutilon theophrasti [7])	ECHCG damage score, application pre-emergence (Echinochloa crus-galli [8])	AMARE damage score, application pre-emergence (Amaranthus retroflexus [9])	SETFA damage score, application pre-emergence (Setaria faberi [10])	ZEAMX damage score, application pre-emergence (zea mays [11])	ALOMY damage score, application pre-emergence (Alopecurus myosuroides [12])
CC1=C(Cl)C(=O)N(c2cc(C(F)(F)F)c(C(=O)OC(C)C)cn2)C1O (stereo not drawn) [AF92]	5	5	5	5	4	4	2	3	4	5	3	4
CC1=C(Cl)C(=O)N(c2cc(C(F)(F)F)c(-c3ccc(C#N)cc3)cn2)C1O (stereo not drawn) [AF93]	4	4	5	4	2	4	1	0	2	0	0	0
CCC(=O)OC1C(C)=C(Cl)C(=O)N1c1cc(C(F)(F)F)c(-c2cccc(C#N)c2)cn1 (stereo not drawn) [AF94]	3	3	4	3	1	3	0	0	3	0	0	0
CC1=C(Cl)C(=O)N(c2cc(C(F)(F)F)c(-c3cccc(C#N)c3)cn2)C1O (stereo not drawn) [AF95]	3	2	5	4	2	2	0	0	0	0	0	0
CCN(CC)C(=O)c1cnc(N2C(=O)C(Cl)=C(C)C2O)cc1C(F)(F)F (stereo not drawn) [AF96]	0	0	0	0	1	0	0	0	0	0	0	0
CC1=C(Cl)C(=O)N(c2cc(C(F)(F)Cl)ccn2)C1O (stereo not drawn) [AF98]	5	5	5	5	3	5	1	5	5	5	2	3
CCc1cc(N2C(=O)C(Cl)=C(C)C2O)ncc1Br (stereo not drawn) [AF99]	5	5	5	4	1	5	0	2	2	1	1	2
CC1=C(Cl)C(=O)N(c2cc(C(C)(C)C#N)ccn2)C1O (stereo not drawn) [AF100]	5	5	5	5	4	5	3	5	5	5	3	4
CCOC(=O)c1cnc(N2C(=O)C(Cl)=C(C)C2O)cc1Cl (stereo not drawn) [AF101]	5	3	5	5	1	2	1	0	2	0	0	0
CC1=C(Cl)C(=O)N(c2ccc(C(C)(C)C#N)cn2)C1O (stereo not drawn) [AF102]	5	5	5	5	5	5	5	5	5	4	3	3
CC1=C(Cl)C(=O)N(c2cc(C(C)C)c(C(=O)NC(C)(C)C)cn2)C1O (stereo not drawn) [AF103]	5	5	5	5	3	4	5	4	5	4	3	4
CC1=C(Cl)C(=O)N(c2cc(C)c(-c3ccsc3)cn2)C1O (stereo not drawn) [AF104]	4	5	5	5	0	2	1	1	5	1	0	0
